In patent US20240068008A1, “RNase for Improved Microbial Detection and Antimicrobial Susceptibility Testing” (MicrobeDX Inc., priority 2016, published 2024):

Columns and labels:
K. pneumoniae = assay: AST with and without RNase, rRNA levels relative to control at 60 or 90 minutes; assay type: cell-based; conditions: susceptible K. pneumoniae isolates, 60 or 90 minutes at 37° C., RNase added to the growth medium
Procedure: Susceptible (S) and resistant (R) K. pneumoniae isolates were incubated in growth medium with cefepime for 60 or 90 minutes at 37° C. with (+) and without (−) 1 μg/ml RNase.
Susceptible (S) and resistant (R) K. pneumoniae isolates were incubated in growth medium with ceftriaxone for 60 or 90 minutes at 37° C. with (+) and without (−) RNase.

Escherichia coli = assay: as above; assay type: cell-based; conditions: susceptible E. coli isolates, 60 or 90 minutes at 37° C., RNase added to the growth medium
Procedure: Similar results have been observed for other Gram-negative bacteria such as Kiebsiella pneumoniae, Proteus mirabilis, and Pseudomonas aeruginosa using the same conditions and RNase concentrations as for E. coli.
Susceptible (S) and resistant (R) E. coli isolates were incubated in growth medium with ampicillin for 60 or 90 minutes at 37° C. with (+) and without (−) RNase.
Susceptible (S) and resistant (R) E. coli isolates were incubated in growth medium with cefazolin for 60 or 90 minutes at 37° C. with (+) and without (−) 1 μg/ml RNase.
Susceptible (S) and resistant (R) E. coli isolates were incubated in growth medium with ceftriaxone for 60 or 90 minutes at 37° C. with (+) and without (−) RNase.

Compound | rRNA levels relative to control (growth medium without antibiotic) (K. pneumoniae) | rRNA levels relative to control (growth medium without antibiotic) (Escherichia coli)
CO/N=C(\C(=O)N[C@@H]1C(=O)N2C(C(=O)[O-])=C(C[N+]3(C)CCCC3)CS[C@H]12)c1csc(N)n1 [cefepime] | significant reduction in rRNA | 
CO/N=C(\C(=O)N[C@@H]1C(=O)N2C(C(=O)O)=C(CSc3nc(=O)c(=O)[nH]n3C)CS[C@H]12)c1csc(N)n1 [ceftriaxone] | significant reduction in rRNA | significant reduction in rRNA
CC1(C)S[C@@H]2[C@H](NC(=O)[C@H](N)c3ccccc3)C(=O)N2[C@H]1C(=O)O [ampicillin] |  | significant reduction in rRNA
Cc1nnc(SCC2=C(C(=O)O)N3C(=O)[C@@H](NC(=O)Cn4cnnn4)[C@H]3SC2)s1 [cefazolin] |  | significant reduction in rRNA
